Earlier results, collected in patent US20210368801A1, “COMPOSITION FOR PREPARING HYPOCHLOROUS ACID WATER, AND TEST PAPER FOR DETERMINING HYPOCHLOROUS ACID WATER” (Wabian Co., Ltd., priority 2020, published 2021).

Columns and labels:
[1] = electrolytic type; http://www.jsia.gr.jp/data/naclo.pdf
coronavirus = details: as an effective chlorine amount, according to NITE

| Structure (SMILES) | LD50 [1] [mg/kg] | effective concentration for the coronavirus (coronavirus) [ppm] |
| --- | --- | --- |
| OCl [sodium hypochlorite] | 1000 | – |
| OCl [hypochlorous acid] | – | 35 |
